# In PMC3180450, “Structural Insights into the Mechanism of Protein O-Fucosylation” (PLoS ONE, 2011):
# Changes are numbered by the printed parent chain. Where two headings read alike, the source gives them in different places.
# How the values were obtained:
# Assay type in all cases: binding
# CePOFUT1 [1] = target: T1, CePOFUT1 (Caenorhabditis elegans, UniProt Q18014); assay: thermal shift assay (ANS fluorescence)
# T1 construct: gene pfut-1; codon-optimized synthetic gene in pPICZalphaA with KEX2 cleavage signal, secreted from Pichia pastoris X-33; monomer
# T1 sequence (Q18014 26-382): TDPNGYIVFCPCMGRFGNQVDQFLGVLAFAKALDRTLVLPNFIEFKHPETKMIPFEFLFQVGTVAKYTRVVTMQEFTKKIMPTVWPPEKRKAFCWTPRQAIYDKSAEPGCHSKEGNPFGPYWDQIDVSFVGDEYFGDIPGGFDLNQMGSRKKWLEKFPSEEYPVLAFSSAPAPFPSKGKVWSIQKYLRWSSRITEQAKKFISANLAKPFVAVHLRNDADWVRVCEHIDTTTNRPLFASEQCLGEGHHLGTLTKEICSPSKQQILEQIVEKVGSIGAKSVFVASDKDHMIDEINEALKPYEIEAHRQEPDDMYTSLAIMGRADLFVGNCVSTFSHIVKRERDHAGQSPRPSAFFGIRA
# From the text: (§1) thermal shift assay (ANS fluorescence) on CePOFUT1
# CePOFUT1 [2] = target: T1, CePOFUT1; assay: isothermal titration calorimetry; settings: read-out: K d (μM)GDP-fucose
# From the text: (§2) isothermal titration calorimetry on CePOFUT1
# CePOFUT1 [3] = target: T2, CePOFUT1 (Caenorhabditis elegans, UniProt Q18014, D309N); assay: thermal shift assay (ANS fluorescence); settings: read-out: ΔT m (°C)1 mM GDP
# T2 construct: gene pfut-1; codon-optimized synthetic gene in pPICZalphaA with KEX2 cleavage signal, secreted from Pichia pastoris X-33; monomer
# T2 sequence (Q18014 26-382 D309N): T1 sequence (Q18014 26-382) with D284N
# From the text: as §1
# CePOFUT1 [4] = target: T3, CePOFUT1 (Caenorhabditis elegans, UniProt Q18014, D242A); assay: isothermal titration calorimetry
# T3 construct: gene pfut-1; codon-optimized synthetic gene in pPICZalphaA with KEX2 cleavage signal, secreted from Pichia pastoris X-33; monomer
# T3 sequence (Q18014 26-382 D242A): T1 sequence (Q18014 26-382) with D217A
# From the text: as §2
# CePOFUT1 [5] = target: T4, CePOFUT1 (Caenorhabditis elegans, UniProt Q18014, D244A); assay: isothermal titration calorimetry
# T4 construct: gene pfut-1; codon-optimized synthetic gene in pPICZalphaA with KEX2 cleavage signal, secreted from Pichia pastoris X-33; monomer
# T4 sequence (Q18014 26-382 D244A): T1 sequence (Q18014 26-382) with D219A
# From the text: as §2
# CePOFUT1 [6] = target: T5, CePOFUT1 (Caenorhabditis elegans, UniProt Q18014, F199A); assay: isothermal titration calorimetry
# T5 construct: gene pfut-1; codon-optimized synthetic gene in pPICZalphaA with KEX2 cleavage signal, secreted from Pichia pastoris X-33; monomer
# T5 sequence (Q18014 26-382 F199A): T1 sequence (Q18014 26-382) with F174A
# From the text: as §2
# CePOFUT1 [7] = target: T6, CePOFUT1 (Caenorhabditis elegans, UniProt Q18014, F261A); assay: isothermal titration calorimetry
# T6 construct: gene pfut-1; codon-optimized synthetic gene in pPICZalphaA with KEX2 cleavage signal, secreted from Pichia pastoris X-33; monomer
# T6 sequence (Q18014 26-382 F261A): T1 sequence (Q18014 26-382) with F236A
# From the text: as §2
# CePOFUT1 [8] = target: T7, CePOFUT1 (Caenorhabditis elegans, UniProt Q18014, F357A); assay: isothermal titration calorimetry
# T7 construct: gene pfut-1; codon-optimized synthetic gene in pPICZalphaA with KEX2 cleavage signal, secreted from Pichia pastoris X-33; monomer
# T7 sequence (Q18014 26-382 F357A): T1 sequence (Q18014 26-382) with F332A
# From the text: as §2
# CePOFUT1 [9] = target: T8, CePOFUT1 (Caenorhabditis elegans, UniProt Q18014, N43A); assay: isothermal titration calorimetry
# T8 construct: gene pfut-1; codon-optimized synthetic gene in pPICZalphaA with KEX2 cleavage signal, secreted from Pichia pastoris X-33; monomer
# T8 sequence (Q18014 26-382 N43A): T1 sequence (Q18014 26-382) with N18A
# From the text: as §2
# CePOFUT1 [10] = target: T9, CePOFUT1 (Caenorhabditis elegans, UniProt Q18014, R240K); assay: isothermal titration calorimetry
# T9 construct: gene pfut-1; codon-optimized synthetic gene in pPICZalphaA with KEX2 cleavage signal, secreted from Pichia pastoris X-33; monomer
# T9 sequence (Q18014 26-382 R240K): T1 sequence (Q18014 26-382) with R215K
# From the text: as §2
# CePOFUT1 [11] = target: T10, CePOFUT1 (Caenorhabditis elegans, UniProt Q18014, R40A); assay: isothermal titration calorimetry
# T10 construct: gene pfut-1; codon-optimized synthetic gene in pPICZalphaA with KEX2 cleavage signal, secreted from Pichia pastoris X-33; monomer
# T10 sequence (Q18014 26-382 R40A): T1 sequence (Q18014 26-382) with R15A
# From the text: as §2
# CePOFUT1 [12] = target: T11, CePOFUT1 (Caenorhabditis elegans, UniProt Q18014, W245A); assay: isothermal titration calorimetry
# T11 construct: gene pfut-1; codon-optimized synthetic gene in pPICZalphaA with KEX2 cleavage signal, secreted from Pichia pastoris X-33; monomer
# T11 sequence (Q18014 26-382 W245A): T1 sequence (Q18014 26-382) with W220A
# From the text: as §2
SMILES,ΔTm at 1000 µM (CePOFUT1 [1]; read-out: ΔT m (°C)1 mM GDP-fucose) [°C],Kd (CePOFUT1 [2]) [µM],ΔTm at 1000 µM (CePOFUT1 [1]; read-out: ΔT m (°C)1 mM GDP) [°C],ΔTm at 1000 µM (CePOFUT1 [3]) [°C],Kd (CePOFUT1 [4]) [µM],Kd (CePOFUT1 [5]) [µM],Kd (CePOFUT1 [6]) [µM],Kd (CePOFUT1 [7]) [µM],Kd (CePOFUT1 [8]) [µM],Kd (CePOFUT1 [9]) [µM],Kd (CePOFUT1 [10]) [µM],Kd (CePOFUT1 [11]) [µM],Kd (CePOFUT1 [12]) [µM]
C[C@@H]1O[C@H](OP(=O)(O)OP(=O)(O)OC[C@H]2O[C@@H](n3cnc4c(=O)[nH]c(N)nc43)[C@H](O)[C@@H]2O)[C@@H](O)[C@H](O)[C@@H]1O [GDP-fucose],2.19,0.23 ± 0.04,,,,,,,,,,,
Nc1nc2c(ncn2[C@@H]2O[C@H](COP(=O)(O)OP(=O)(O)O)[C@@H](O)[C@H]2O)c(=O)[nH]1 [GDP],,,4.21,5.01,0.09 ± 0.02,0.1 ± 0.01,0.18 ± 0.03,0.12 ± 0.07,26.9 ± 5,0.3 ± 0.09,61.2 ± 10.5,3.1 ± 0.53,1.6 ± 0.4
